# Laboratory results: patent publication US9211313B2, “Methods and compound to inhibit Ca2+ permeable cation conductance” (priority 2011, dated 2015)
# Entries after “also recorded” stand apart in the source; their conditions may differ.
# Key:
# Assay type in all cases: cell-based
# [1] = test system: deoxygenation-activated cation conductance in human SS red cells; assay: On-cell patch clamp of deoxygenation-activated cation conductance, symmetric Na methanesulfonate
# Procedure: (§1) Blood cell preparation: Human SS and AA blood was obtained under IRB-approved protocols of Children's Hospital and Beth Israel Deaconess Medical Center. After buffy coat removal and 5 washes in standard human red cell wash solution containing (in mM) 150 choline Cl, 1 MgCl, and 10 Tris-MOPS, pH 7.4, red cells were resuspended in storage solution containing (in mM) 145 KCl, 15 NaCl, and 10 HEPES, pH 7.4, then kept at 4° C. until used. Human red cells allowed to settle on coverslips were mounted on an inverted microscope in a 200 μl open chamber (WPI, Sarasota, Fla.) and superfused 15 min at room temperature by bath solution containing (in mM) 150 Na methanesulfonate, 10 Na EDTA, and 10 Na HEPES, pH 7.4.
# Mouse red cells allowed to settle on coverslips were superfused 15 min with bath solution containing (in mM) either 150 mM Na methanesulfonate, 10 Na EDTA, and 10 Na HEPES, pH 7.4; or 140 NaCl, 4 KCl, 1CaCl2, 1 MgCl2, 10 Na HEPES, pH 7.4. Deoxygenation was achieved by switching superfusate to the same solution gassed ≧30 min prior to the experiment with 100% N2, and by flushing of the perfusion chamber with N2 during the deoxygenation period. The resulting bath pO2 was 18 mm Hg as measured by oxygen electrode (WPI). In the experiments of FIG. 1, deoxygenated cells were subsequently re-oxygenated by exposure to the same superfusate equilibrated with room air.
# (§2) Washed human or mouse red cells in solution containing (in mM) 140 NaCl, 5 KCl, 1 CaCl2, 1 MgCl2, 10 Na HEPES, pH 7.4 were exposed for 1 hr on a rotary platform in a 37° C. incubator to 25 ppm carbon monoxide (CO) in 5% CO2. CO-exposed cells were then subjected to patch clamp or to calcium imaging experiments within 60 min after return to room air, using the solutions indicated.
# (§3) On-cell patch clamp: Borosilicate pipettes (Corning 7052) pulled with a Narishige two stage puller or a Sutter P97 puller and fire-polished to resistances of 10-20 MΩ were front-filled and then backfilled. Symmetric bath and pipette solutions for studies of seal resistance stability during reversibility tests of the deoxygenation-activated conductance in SAD mouse red cells were (in mM) 140 NaCl, 4 KCl, 1 CaCl2, 1 MgCl2, 10 Na HEPES, pH 7.4. These conditions yielded tight seals in 13% of patch attempts on SAD cells. For study of deoxygenation-induced monovalent cation permeation in the absence of bath Ca^2+ and Mg^2+ recorded in SAD and Berkeley mouse cells and in human cells, symmetric bath and pipette solutions contained (in mM) 150 Na methanesulfonate, 10 Na EDTA, and 10 Na HEPES, pH 7.4. These conditions yielded tight seals in 16% of patch attempts on SAD mouse red cells, 26% of attempts on Berkeley mouse cells, and 30% of attempts on human SS cells. For study of Ca^2+ permeation in human SS cells, bath and pipette solutions contained (in mM) 100 CaCl2, 10 Na HEPES, pH 7.4. These conditions yielded tights seals on 44% of attempts. For all conditions tested in human red cells, 70% of tight seals were sustained through the solution change accompanying deoxygenation to allow recording of current activity.
# (§4) On-cell patch currents were recorded with the Axopatch 1-D amplifier (Axon Instruments/Molecular Devices, Sunnyvale, Calif.). Holding potential was −Vp=−50 mV (expressed as the negative of the pipette potential (e.g., equivalent to the intracellular potential with respect to the pipette). To determine current-voltage relationships (I-V curves) in Fetchex or Clampex (PCLAMP, Axon Instruments), the realtime control window in gap-free mode was used to record current traces of 10-30 sec duration at holding potentials ranging from −100 to +100 mV, in 25 mV increments. The bath reference electrode was a silver chloride wire with a 3 M KCl agar bridge. Data was filtered at 500 Hz, digitized at 2 kHz by Clampex, and analyzed offline by Fetchan and Pstat or by Clampfit subroutines of PCLAMP. Holding potentials in on-cell patch experiments were expressed as −Vp, the negative of the pipette potential.
# human SS red cells = assay: Fluo-3 fluorescence measurement of [Ca2+]i during deoxygenation, human SS cells; settings: CO preincubation, no continued CO exposure
# Procedure: as §1, §2
# (§5) Fluorescence measurements of cytosolic [Ca^2+] ([Ca^2+]i): After removal of plasma and buffy coat by aspiration, human or mouse red cells were washed three times at room temperature and suspended in modified Hank's solution containing (in mM), 137 NaCl, 5.4 KCl, 1 CaCl2, 1 MgCl2, 0.8 NaK phosphate, 5.6 glucose, and 10 Na HEPES, pH 7.4. Dilute cell suspensions were settled on polylysine-coated coverslips forming the bottom of an open perfusion chamber (2.5 cm diameter, 1 cm depth) and washed again 3 times.
# Measurement of relative changes in [Ca^2+]i by Fluo-3 fluorescence emission was previously validated in intact human (Yang et al. 2000, Blood, 95(7):2421-2425; Andrews et al. 2002, Blood, 199(9):3392-3399) and mouse red cells (Akel et al. 2007, Amer. J. Physiol., 292(5):C1759-1767). […] Fluorescence emission (proportional to [Ca^2+]i) from a 535ds20 bandpass filter was collected from all attached single cells within the arbitrarily selected visual field. […]
# (§6) Fluo-3 fluorescence from attached cells on each coverslip was recorded 60 sec in room air and then for 10 min after onset of perfusion chamber flushing with humidified 100% N2. The normalized increase in Fluo-3 fluorescence in SS cells subjected to this deoxygenation procedure was indistinguishable from that observed during superfusion of cells in a closed perfusion chamber via syringe pump with bath previously bubbled for 60 min with 100% N2 (n=62 cells from 2 SS patients, not shown). The y-axis value of 0% change in Fluo-3 fluorescence intensity represented mean intensity recorded from all cells within the coverslip visual field during the 60 sec prior to deoxygenation.
# KCa3.1 = target: T1, KCa3.1 (Homo sapiens, UniProt O15554)
# T1 construct: KCa3.1 activity stimulated in intact human AA cells by 1 μM A23187; endogenous in cells; host or cells: intact human AA red blood cells
# [2] = test system: LPA-induced cation conductance in human SS red cells; assay: On-cell patch clamp of LPA-induced cation conductance
# Description: as §3, §4
# Deoxygenation-activated flickering cation conductance observed in human SS cells contrasted with the prolonged channel openings produced by 5 μM LPA (FIG. 10A). In SS cells, LPA increased NPo […], from 0.04±0.03 to 0.82±0.18 (n=8, p<0.001; Na methanesulfonate in bath and pipette, −Vp=−50 mV; FIG. 10B). LPA-induced cation conductance was 96% inhibited by 100 uM dipyridamole in the pipette, and 97% inhibited by 1 μM GsMTx-4 in the pipette (both n=4).
# [3] = test system: SAD sickle mouse red cells; assay: Fluo-3 fluorescence measurement of [Ca2+]i during deoxygenation, SAD cells
# Procedure: Blood was withdrawn by cardiac puncture or from the tail vein of C57B16/J wildtype mice, SAD sickle mice, or Berkeley sickle mice into heparinized syringes by IACUC-approved protocols of Beth Israel Deaconess Medical Center. Buffy coat-depleted cells were washed 5 times in standard mouse red cell wash solution containing (in mM) 172 choline Cl, 10 sucrose, 10 Na Tris-MOPS, pH 7.4, resuspended in storage solution, and kept at 4° C. until use.
# as §5
# Measurement of relative changes in [Ca^2+]i by Fluo-3 fluorescence emission was previously validated in intact human (Yang et al. 2000, Blood, 95(7):2421-2425; Andrews et al. 2002, Blood, 199(9):3392-3399) and mouse red cells (Akel et al. 2007, Amer. J. Physiol., 292(5):C1759-1767). Attached red cells were loaded in the dark with the fluorescent non-ratiometric Ca^2+ indicator Fluo-3-AM (10 μM, Molecular Probes, Eugene, Oreg.) at 37° C. for 1 hr, then washed and incubated 15 min further to allow de-esterification of intracellular dye. The open perfusion chamber containing dye-loaded cells was mounted on an Olympus IMT-2 inverted epifluorescence microscope equipped with CoolSNAP CCD camera (Photometrics, Tucson, Ariz.). Fluo-3 in cells imaged through a 60× objective was excited by mercury-xenon illumination passed through a 495ds20 filter. Fluorescence emission (proportional to [Ca^2+]i) from a 535ds20 bandpass filter was collected from all attached single cells within the arbitrarily selected visual field. Emission image acquisition was controlled by a Metafluor digital imaging system (Universal Imaging, West Chester, Pa.).
# as §6
# T1 sequence (O15554 whole entry): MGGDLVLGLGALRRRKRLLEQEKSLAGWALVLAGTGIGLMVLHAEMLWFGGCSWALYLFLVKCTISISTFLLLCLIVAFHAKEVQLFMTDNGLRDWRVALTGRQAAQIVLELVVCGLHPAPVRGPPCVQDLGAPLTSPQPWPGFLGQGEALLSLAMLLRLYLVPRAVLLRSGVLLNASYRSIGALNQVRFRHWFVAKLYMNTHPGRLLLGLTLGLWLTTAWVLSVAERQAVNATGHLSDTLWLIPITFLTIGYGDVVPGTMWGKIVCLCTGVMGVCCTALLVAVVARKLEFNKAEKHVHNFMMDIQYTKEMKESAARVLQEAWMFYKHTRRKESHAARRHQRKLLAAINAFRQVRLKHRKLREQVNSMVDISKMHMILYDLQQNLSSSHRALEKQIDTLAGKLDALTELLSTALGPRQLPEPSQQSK
smiles,measurement,setting,value
"[C-]#[O+] [CO, carbon monoxide]",NPo upon deoxygenation,"[1]; CO-pretreated cells, n=4",0.0625±0.0375
same,Normoxic NPo,"[1]; CO-pretreated cells, n=4",0.0377±0.0375
same,effect on activation of conductance upon deoxygenation,[1]; prior CO exposure of SS cells,prevented
same,effect on [Ca2+]i elevation by deoxygenation,human SS red cells,blocked; also recorded: inhibited
"O=S(=O)(O)c1cc(N=C=S)ccc1C=Cc1ccc(N=C=S)cc1S(=O)(=O)O [DIDS, 4,4′-diisothiocyanatostilbene-2,2′-disulfonic acid]",effect on deoxygenation-induced activation of cation conductance,[1]; 100 μM in the pipette,prevented; also recorded: blocked
same,NPo after deoxygenation (hypoxic),"[1]; 100 μM in the pipette, n=4",0.001±0.001
same,Normoxic NPo,"[1]; 100 μM in the pipette, n=4",0.002±0.002
"Clc1ccccc1C(c1ccccc1)(c1ccccc1)n1ccnc1 [clotrimazole, reference compound]",effect on A23187-stimulated cell shrinkage,KCa3.1,completely inhibited
OCCN(CCO)c1nc(N2CCCCC2)c2nc(N(CCO)CCO)nc(N3CCCCC3)c2n1 [dipyridamole],effect on deoxygenation-induced activation of cation conductance,[1]; 100 μM in the pipette,prevented
same,NPo after deoxygenation (hypoxic),"[1]; 100 μM in the pipette, n=4",0.004±0.002
same,Normoxic NPo,"[1]; 100 μM in the pipette, n=4",0.00
same,effect on LPA-induced increase in NPo,[2]; 100 μM in the pipette,prevented
same,inhibition at 100 µM,"[2]; Homo sapiens, 100 uM in the pipette, 5 μM LPA, n=4",96%
"[Na+].[Na+].[Na+].[O]=[V]([O-])([O-])[O-] [vanadate, Na vanadate]",effect on deoxygenation-induced [Ca2+]i elevation,"[3]; 50 μM in bath, acute deoxygenation",enhanced; also recorded: further elevated
same,time to plateau [Ca2+]i after deoxygenation,"[3]; 50 μM, continued presence",< 2 min
same,[Ca2+]i-dependent Fluo-3 emission increase,"[3]; 50 μM, 5 min normoxic preincubation of SAD cells",12.8±1.8%
same,late [Ca2+]i relative to plateau,"[3]; 50 μM, after ~4 min longer at plateau",twice the previous plateau value
